From patent publication US11497751B2, “Modulators of Rho-associated protein kinase” (Redx Pharma PLC, priority 2018, dated 2022)
Structures can show the parent of a compound that is named as a salt.

molecular target: T1, N-terminal 6His-tagged ROCK2 catalytic domain 11-552 (Homo sapiens, UniProt O75116); experiment: ROCK2 binding activity: ROCK2 inhibition, ADP-Glo Kinase Assay; format: biochemical; conditions: 1.25 nM ROCK2, 100 μM long S6 peptide, 20 μM ATP; 1 hour pre-incubation; read-out: ADP-Glo kinase activity assay ROCK2 Category
T1 construct: N-terminal 6His-tagged ROCK2 catalytic domain 11-552; 6His (N); purchased Dundee University, UK; host or cells: baculovirus expression system
T1 sequence (O75116 11-552): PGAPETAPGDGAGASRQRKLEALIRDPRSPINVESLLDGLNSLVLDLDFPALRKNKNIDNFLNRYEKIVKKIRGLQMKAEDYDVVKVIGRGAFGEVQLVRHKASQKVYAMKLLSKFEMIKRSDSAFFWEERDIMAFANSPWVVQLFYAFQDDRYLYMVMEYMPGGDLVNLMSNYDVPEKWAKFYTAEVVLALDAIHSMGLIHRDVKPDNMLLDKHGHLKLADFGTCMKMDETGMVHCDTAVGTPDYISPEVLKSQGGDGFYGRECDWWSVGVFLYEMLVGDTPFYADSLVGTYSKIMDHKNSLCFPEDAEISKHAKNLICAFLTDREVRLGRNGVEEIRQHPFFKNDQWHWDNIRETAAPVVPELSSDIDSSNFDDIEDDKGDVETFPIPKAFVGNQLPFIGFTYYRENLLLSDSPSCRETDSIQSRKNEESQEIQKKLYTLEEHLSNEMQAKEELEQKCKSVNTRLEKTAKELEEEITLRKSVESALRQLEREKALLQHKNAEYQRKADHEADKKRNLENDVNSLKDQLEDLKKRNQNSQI
In short: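 1.25 nM baculovirus-expressed ROCK2 pre-incubated 1 h with compound (1% DMSO), then 100 μM long S6 peptide and 20 μM ATP added for 1 h; 50 mM HEPES pH 7.5, 10 mM Mg acetate, 1 mM DTT. ADP-Glo luminescence; IC50 from four-parameter logistic fit.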

SMILES	IC50 [nM]
Cn1nc(-c2ccc(N3CCOCC3)cc2)nc1Nc1ccc2[nH]ncc2c1Cl [Example 102]	< 300
CCc1c(Nc2nc(-c3ccc(C(=O)NC(C)C)cc3)nn2C)ccc2[nH]ncc12 [Example 318]	< 300
CCNC(=O)c1cc(F)c(-c2nc(Nc3ccc4[nH]ncc4c3Cl)n(C)n2)cc1F [Example 360]	< 300
COc1cc(-c2nc(Nc3ccc4[nH]ncc4c3C3CC3)n(C)n2)ccc1OCC(=O)NC(C)C [Example 274]	< 300
CCN1CCc2cc(-c3nc(Nc4ccc5[nH]ncc5c4C4CC4)n(C)n3)ccc2C1C (stereo not drawn) [Example 249, 4-cyclopropyl-N-[5-(2-ethyl-1-methyl-3,4-dihydro-1H-isoquinolin-6-yl)-2-methyl-1,2,4-triazol-3-yl]-1H-indazol-5-amine]	3000 to 10000
Cn1nc(-c2cccc(CNS(C)(=O)=O)c2)nc1Nc1ccc2[nH]ncc2c1Cl [Example 75]	< 300
O=C(NCCOc1ccc(-c2nnc(Nc3ccc4[nH]ncc4c3)[nH]2)cc1)N1CCCC1 [Example 225]	300 to 3000
CC(C)NC(=O)CCc1ccc(-c2nnc(Nc3ccc4[nH]ncc4c3)[nH]2)cc1 [Example 20]	300 to 3000
Cn1nc(-c2ccc(C(=O)NCC(C)(C)O)cc2)nc1Nc1ccc2[nH]ncc2c1C1CC1 [Example 286]	< 300
Cn1nc(C2=CCOCC2)nc1Nc1ccc2[nH]ncc2c1Cl [Example 98]	> 10000
COc1cc(-c2nc(Nc3ccc4[nH]ncc4c3F)n(C)n2)ccc1C(=O)NC(C)C [Example 183]	< 300
CC(C)Oc1ccc(-c2nc(Nc3ccc4[nH]ncc4c3Cl)n(C)n2)cn1 [Example 103]	< 300
CC(C)NC(=O)COc1ccc(-c2nc(Nc3ccc4[nH]ncc4c3)n(C)n2)cc1 [Example 470]	< 300
Cn1ccc(NC(=O)c2ccc(-c3nc(Nc4ccc5[nH]ncc5c4C4CC4)n(C)n3)cc2)n1 [Example 339]	< 300
Cn1nc(-c2ccc3c(c2)CCNC3=O)nc1Nc1ccc2[nH]ncc2c1Cl [Example 364]	< 300
COc1cc(-c2nc(Nc3ccc4[nH]ncc4c3)n(C)n2)ccc1OCC(=O)NC1CNC1 [Example 45]	< 300
COc1cc(-c2nc(Nc3ccc4[nH]ncc4c3Cl)n(C)n2)ccc1C(=O)N1CC(CO)(CO)C1 [Example 173]	3000 to 10000
Cn1nc(-c2ccnc(N)c2)nc1Nc1ccc2[nH]ncc2c1Cl [Example 133]	300 to 3000
Cn1nc(-c2ccc(-c3ccccn3)cc2)nc1Nc1ccc2[nH]ncc2c1C1CC1 [Example 390]	< 300
Cn1nc(-c2cncnc2)nc1Nc1ccc2[nH]ncc2c1Cl [Example 76]	300 to 3000
COc1cc(-c2nc(Nc3ccc4[nH]ncc4c3Cl)n(C)n2)ccc1OCC(=O)NC1CCCC1 [Example 217]	< 300
Cn1nc(-c2ccc(C(=O)NC(C)(C)C)c(Cl)c2)nc1Nc1ccc2[nH]ncc2c1Cl [Example 256]	< 300
CCNC(=O)c1ccc(-c2nc(Nc3ccc4[nH]ncc4c3CC)n(C)n2)cc1 [Example 323]	< 300

SMILES	IC50 [nM]
COCCn1nc(-c2ccc(C(=O)NCC(F)(F)F)cc2)nc1Nc1ccc2[nH]ncc2c1C [Example 453]	< 300
Cn1nc(-c2ccc(C(=O)NC(C)(C)C)cc2)nc1Nc1ccc2[nH]ncc2c1Cl [Example 257]	< 300
CCNC(=O)c1ccc(-c2nc(Nc3ccc4[nH]ncc4c3)n(C)n2)cc1OC [Example 168]	< 300
Cn1nc(-c2cnn(Cc3ccccc3)c2)nc1Nc1ccc2[nH]ncc2c1Cl [Example 60]	300 to 3000
c1ccc(COc2ccc(-c3nnc(Nc4ccc5[nH]ncc5c4)[nH]3)cc2)cc1 [Example 13]	300 to 3000
Cn1nc(-c2ccc(C(=O)N3CCNC(C(F)(F)F)C3)cc2)nc1Nc1ccc2[nH]ncc2c1C1CC1 (stereo not drawn) [Example 307]	300 to 3000
Cc1cc(OCC(=O)NC(C)C)ccc1-c1nc(Nc2ccc3[nH]ncc3c2)n(C)n1 [Example 401]	< 300
CC(C)NC(=O)COc1ccc(-c2nc(Nc3ccc4[nH]ncc4c3Cl)n(C)n2)cc1 [Example 471]	< 300
Cn1nc(-c2ccc(OC(F)(F)F)cc2)nc1Nc1ccc2[nH]ncc2c1Cl [Example 138]	< 300
COc1cc(-c2nc(N(C)c3ccc4[nH]ncc4c3)n(C)n2)ccc1OCC(=O)NC(C)C [Example 46]	> 10000
COc1cc(-c2nc(Nc3ccc4[nH]ncc4c3Cl)n(C)n2)ccc1OCC(=O)NC(C)CO (stereo not drawn) [Example 208]	< 300
COc1cc(-c2nc(Nc3cc4cn[nH]c4cc3C)n(C)n2)ccc1C(=O)NCC(F)(F)F [Example 335]	> 10000
CC(C)C(=O)NCCOc1ccc(-c2nnc(Nc3ccc4[nH]ncc4c3)[nH]2)cc1 [Example 23]	300 to 3000
COc1ccc(-c2nnc(Nc3ccc4[nH]ncc4c3)[nH]2)cc1 [Example 1, N-[5-(4-Methoxyphenyl)-4H-1,2,4-triazol-3-yl]-1H-indazol-5-amine dihydrochloride]	300 to 3000
O=C(COc1ccc(-c2nnc(Nc3ccc4[nH]ncc4c3)[nH]2)cc1)NC1COC1 [Example 164]	< 300
Cn1nc(-c2cccc(N3CCOCC3)c2)nc1Nc1ccc2[nH]ncc2c1Cl [Example 69]	< 300
CCNC(=O)c1cc(F)c(-c2nc(Nc3ccc4[nH]ncc4c3)n(C)n2)cc1F [Example 409]	< 300
CNC(=O)COc1ccc(-c2nnc(Nc3ccc4[nH]ncc4c3)[nH]2)cc1OC [Example 9]	300 to 3000
CNC(=O)c1ccc(-c2nc(Nc3ccc4[nH]ncc4c3Cl)n(C)n2)cc1OC [Example 174]	< 300
COc1cc(-c2nc(Nc3ccc4[nH]ncc4c3Cl)n(C)n2)ccc1OCC(=O)N[C@H](C)C(F)(F)F [Example 219]	< 300
CCc1c(Nc2nc(-c3ccc(C(=O)NCC(F)(F)F)c(OC)c3)nn2C)ccc2[nH]ncc12 [Example 316]	< 300
CCNC(=O)c1ccc(-c2nc(Nc3ccc4[nH]ncc4c3C3CC3)n(C)n2)cc1OC [Example 272]	< 300
CCNC(=O)c1ccc(-c2nc(Nc3ccc4[nH]ncc4c3)n(C)n2)c(OC)c1 [Example 395]	< 300

SMILES	IC50 [nM]
COc1cc(-c2nc(Nc3ccc4[nH]ncc4c3Cl)n(-c3ccccn3)n2)ccc1C(=O)NCC(F)(F)F [Example 153]	< 300
Cn1nc(-c2ccc(C(=O)NC3CC3)cc2)nc1Nc1ccc2[nH]ncc2c1Cl [Example 177]	< 300
Cn1nc(-c2ccc(C(=O)Nc3cccnc3)cc2)nc1Nc1ccc2[nH]ncc2c1Cl [Example 260]	< 300
Cn1nc(-c2ccc(C(=O)NCC(C)(F)F)cc2)nc1Nc1ccc2[nH]ncc2c1C1CC1 [Example 338, 4-[5-[(4-cyclopropyl-1H-indazol-5-yl)amino]-1-methyl-1,2,4-triazol-3-yl]-N-(2,2-difluoropropyl)benzamide]	< 300
CC(C)NC(=O)COc1ccc(-c2nc(Nc3ccc4[nH]ncc4c3Cl)n(C)n2)cc1F [Example 474]	< 300
Cn1nc(-c2ccc(C(=O)Nc3ccccn3)cc2)nc1Nc1ccc2[nH]ncc2c1Cl [Example 266]	< 300
COc1cc(OCC(=O)NC(C)C)ccc1-c1nnc(Nc2ccc3[nH]ncc3c2)[nH]1 [Example 27]	300 to 3000
COc1cc(-c2nc(Nc3ccc4[nH]ncc4c3Cl)n(C)n2)ccc1OCC(=O)NC1CCOC1 (stereo not drawn) [Example 51]	< 300
COc1cc(-c2nc(Nc3ccc4[nH]ncc4c3Cl)n(-c3ccccn3)n2)ccc1OCC(=O)NC(C)C [Example 151]	> 10000
CC(C)NC(=O)COc1ccc(-c2nnc(Nc3ccc4[nH]ncc4c3)[nH]2)cc1CN [Example 15]	300 to 3000
CC(C)NC(=O)COc1cc(F)c(-c2nc(Nc3ccc4[nH]ncc4c3)n(C)n2)cc1F [Example 416]	< 300
CCNC(=O)N1CC=C(c2nc(Nc3ccc4[nH]ncc4c3C3CC3)n(C)n2)CC1 [Example 341, 4-[5-[(4-cyclopropyl-1H-indazol-5-yl)amino]-1-methyl-1,2,4-triazol-3-yl]-N-ethyl-3,6-dihydro-2H-pyridine-1-carboxamide]	300 to 3000
Oc1ccc(-c2nnc(Nc3ccc4[nH]ncc4c3)[nH]2)cc1 [Example 39]	300 to 3000
CCNC(=O)c1ccc(-c2nc(Nc3ccc4[nH]ncc4c3Cl)n(C)n2)cc1F [Example 43, 4-[5-[(4-chloro-1H-indazol-5-yl)amino]-1-methyl-1,2,4-triazol-3-yl]-N-ethyl-2-fluoro-benzamide]	< 300
COc1cc(-c2nc(Nc3ccc4[nH]ncc4c3Cl)n(C)n2)ccc1C(=O)NCC(F)(F)F [Example 201]	< 300
CCc1c(Nc2nc(-c3ccc(C(=O)NC4CN(C)C4)c(OC)c3)nn2C)ccc2[nH]ncc12 [Example 315]	300 to 3000
CC(C)NC(=O)CCn1cc(-c2nnc(Nc3ccc4[nH]ncc4c3)[nH]2)ccc1=O [Example 35]	300 to 3000
Cn1nc(-c2ccc3c(c2)CCN(C(=O)C2CC2)C3)nc1Nc1ccc2[nH]ncc2c1Cl [Example 238]	< 300
COc1cc(-c2nc(Nc3ccc4[nH]ncc4c3C)n(C)n2)ccc1C(=O)NC(C)C [Example 179]	< 300
CC(C)NCCOc1ccc(-c2n[nH]c(Nc3ccc4[nH]ncc4c3)n2)cc1 [Example 230, N-[5-[4-[2-(isopropylamino)ethoxy]phenyl]-4H-1,2,4-triazol-3-yl]-1H-indazol-5-amine]	300 to 3000
C=C(C)c1c(Nc2nc(-c3ccc(C(=O)NCC)cc3)nn2C)ccc2[nH]ncc12 [Example 459, N-ethyl-4-[5-[(4-isopropenyl-1H-indazol-5-yl)amino]-1-methyl-1,2,4-triazol-3-yl]benzamide]	< 300
COc1cc(-c2nc(Nc3ccc4[nH]ncc4c3)n(C)n2)ccc1C(=O)NC(C)(C)C [Example 170]	< 300
COc1cc(-c2nc(Nc3ccc4[nH]ncc4c3Cl)n(C)n2)ccc1OCC(=O)N[C@@H](C)C(F)(F)F [Example 218]	< 300
